Data from US12258327B2, “5-membered heteroaryl-containing aminopyridine compounds as EGFR inhibitors” (YUHAN CORPORATION, priority 2021, dated 2025).
Read-outs that look alike come from different tables or passages of the source.

Columns and labels:
EGFR del19/T790M/C797S = EGFR del19/T790M/C797S (Homo sapiens, UniProt P00533, C797S/DEL746-750/T790M); experiment: Biochemical EGFR kinase assay (Lance Ultra TR-FRET), triple mutant del19/T790M/C797S
In short: (§1)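 In this biochemical assay, phosphorylation after a one-hour room-temperature reaction was detected with europium-labelled anti-phosphopeptide antibody at 2 nM final concentration.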

EGFR wildtype (WT) = EGFR wildtype (WT) (Homo sapiens, UniProt P00533); experiment: Biochemical EGFR kinase assay (Lance Ultra TR-FRET), wildtype
In short: as §1

EGFR del19/C797S = EGFR del19/C797S (Homo sapiens, UniProt P00533, C797S/DEL746-750); experiment: Biochemical EGFR kinase assay (Lance Ultra TR-FRET), double mutant del19/C797S
In short: as §1

EGFR L858R/C797S = EGFR L858R/C797S (Homo sapiens, UniProt P00533, C797S/L858R); experiment: Biochemical EGFR kinase assay (Lance Ultra TR-FRET), double mutant L858R/C797S
In short: as §1

EGFR L858R/T790M/C797S = EGFR L858R/T790M/C797S (Homo sapiens, UniProt P00533, C797S/L858R/T790M); experiment: Biochemical EGFR kinase assay (Lance Ultra TR-FRET), triple mutant L858R/T790M/C797S
In short: as §1

[1] = IC50 del19/T790M/C797S (nM) 100 μM ATP, 100 μM ATP
[2] = Km ATP, read-out: IC50 del19/T790M/C797S (nM) Km ATP
[3] = IC50 WT (nM) 100 μM ATP, 100 μM ATP
[4] = Km ATP, read-out: IC50 WT (nM) Km ATP
[5] = IC50 del19/C797S (nM) 100 μM ATP, 100 μM ATP
[6] = Km ATP, read-out: IC50 del19/C797S (nM) Km ATP
[7] = IC50 L858R/C797S (nM) 100 μM ATP, 100 μM ATP
[8] = Km ATP, read-out: IC50 L858R/C797S (nM) Km ATP
[9] = IC50 L858R/T790M/C797S (nM) 100 μM ATP, 100 μM ATP
[10] = Km ATP, read-out: IC50 L858R/T790M/C797S (nM) Km ATP

Sequence of EGFR del19/T790M/C797S (P00533 with tags, fused parts or gaps DEL746-750/T790M/C797S): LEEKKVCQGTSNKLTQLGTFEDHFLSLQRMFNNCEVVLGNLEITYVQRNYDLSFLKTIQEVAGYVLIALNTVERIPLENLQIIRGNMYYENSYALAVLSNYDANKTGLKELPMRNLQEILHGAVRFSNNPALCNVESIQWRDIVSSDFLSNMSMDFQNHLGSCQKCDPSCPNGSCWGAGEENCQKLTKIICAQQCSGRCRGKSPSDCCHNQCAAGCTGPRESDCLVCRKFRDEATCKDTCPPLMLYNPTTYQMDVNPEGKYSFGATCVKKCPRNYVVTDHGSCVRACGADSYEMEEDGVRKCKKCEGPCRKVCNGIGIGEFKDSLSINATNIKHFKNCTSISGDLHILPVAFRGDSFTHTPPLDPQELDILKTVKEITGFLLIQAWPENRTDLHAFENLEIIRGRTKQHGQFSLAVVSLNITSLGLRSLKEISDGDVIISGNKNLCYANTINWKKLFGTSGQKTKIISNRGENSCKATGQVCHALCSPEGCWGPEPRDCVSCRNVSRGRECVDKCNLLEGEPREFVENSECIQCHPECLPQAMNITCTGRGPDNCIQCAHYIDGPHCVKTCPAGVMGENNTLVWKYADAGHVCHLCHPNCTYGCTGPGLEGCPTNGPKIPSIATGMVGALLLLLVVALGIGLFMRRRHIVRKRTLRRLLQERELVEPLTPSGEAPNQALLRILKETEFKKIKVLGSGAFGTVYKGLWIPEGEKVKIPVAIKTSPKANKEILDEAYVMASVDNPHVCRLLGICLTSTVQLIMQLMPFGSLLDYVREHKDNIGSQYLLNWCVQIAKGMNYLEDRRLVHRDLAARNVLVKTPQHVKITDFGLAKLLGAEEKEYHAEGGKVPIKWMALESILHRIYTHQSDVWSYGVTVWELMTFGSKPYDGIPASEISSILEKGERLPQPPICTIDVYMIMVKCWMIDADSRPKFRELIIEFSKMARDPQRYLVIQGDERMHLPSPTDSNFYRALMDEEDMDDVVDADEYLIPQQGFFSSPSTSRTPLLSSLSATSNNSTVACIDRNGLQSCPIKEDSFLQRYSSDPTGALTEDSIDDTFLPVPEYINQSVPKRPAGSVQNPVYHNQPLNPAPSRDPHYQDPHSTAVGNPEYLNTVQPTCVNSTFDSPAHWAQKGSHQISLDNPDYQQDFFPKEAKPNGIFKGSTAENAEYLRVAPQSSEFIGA
Sequence of EGFR L858R/C797S (P00533 25-1210 C797S/L858R): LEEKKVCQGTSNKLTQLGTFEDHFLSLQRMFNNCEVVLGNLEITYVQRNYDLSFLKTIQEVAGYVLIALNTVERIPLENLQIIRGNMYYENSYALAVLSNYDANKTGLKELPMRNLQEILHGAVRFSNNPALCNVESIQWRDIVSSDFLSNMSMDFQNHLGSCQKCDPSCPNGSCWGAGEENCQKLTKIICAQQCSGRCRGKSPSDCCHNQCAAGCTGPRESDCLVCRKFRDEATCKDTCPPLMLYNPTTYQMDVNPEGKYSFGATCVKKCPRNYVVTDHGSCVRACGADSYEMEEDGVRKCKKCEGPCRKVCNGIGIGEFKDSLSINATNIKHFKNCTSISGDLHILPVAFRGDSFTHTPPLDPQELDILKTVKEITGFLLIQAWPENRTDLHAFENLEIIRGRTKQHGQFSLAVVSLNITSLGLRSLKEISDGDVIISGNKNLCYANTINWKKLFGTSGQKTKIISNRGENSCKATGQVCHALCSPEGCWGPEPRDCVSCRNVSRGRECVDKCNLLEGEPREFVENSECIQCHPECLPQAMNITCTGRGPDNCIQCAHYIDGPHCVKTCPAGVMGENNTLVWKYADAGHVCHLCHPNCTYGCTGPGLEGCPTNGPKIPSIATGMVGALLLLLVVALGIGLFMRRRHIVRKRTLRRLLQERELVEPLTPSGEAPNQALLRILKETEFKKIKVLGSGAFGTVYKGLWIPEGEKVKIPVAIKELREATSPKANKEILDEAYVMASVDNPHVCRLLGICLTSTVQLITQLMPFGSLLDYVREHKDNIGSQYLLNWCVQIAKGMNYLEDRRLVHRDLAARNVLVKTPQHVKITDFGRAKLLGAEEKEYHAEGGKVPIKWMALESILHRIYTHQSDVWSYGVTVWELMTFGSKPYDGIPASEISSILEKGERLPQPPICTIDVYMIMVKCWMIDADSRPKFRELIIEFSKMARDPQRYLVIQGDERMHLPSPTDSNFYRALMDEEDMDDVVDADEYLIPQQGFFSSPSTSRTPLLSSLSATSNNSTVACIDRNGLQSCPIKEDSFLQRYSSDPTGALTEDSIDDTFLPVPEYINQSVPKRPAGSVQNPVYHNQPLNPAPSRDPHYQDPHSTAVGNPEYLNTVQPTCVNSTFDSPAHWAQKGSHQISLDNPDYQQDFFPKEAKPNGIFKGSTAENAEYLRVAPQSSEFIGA
Sequence of EGFR del19/C797S (P00533 with tags, fused parts or gaps DEL746-750/C797S): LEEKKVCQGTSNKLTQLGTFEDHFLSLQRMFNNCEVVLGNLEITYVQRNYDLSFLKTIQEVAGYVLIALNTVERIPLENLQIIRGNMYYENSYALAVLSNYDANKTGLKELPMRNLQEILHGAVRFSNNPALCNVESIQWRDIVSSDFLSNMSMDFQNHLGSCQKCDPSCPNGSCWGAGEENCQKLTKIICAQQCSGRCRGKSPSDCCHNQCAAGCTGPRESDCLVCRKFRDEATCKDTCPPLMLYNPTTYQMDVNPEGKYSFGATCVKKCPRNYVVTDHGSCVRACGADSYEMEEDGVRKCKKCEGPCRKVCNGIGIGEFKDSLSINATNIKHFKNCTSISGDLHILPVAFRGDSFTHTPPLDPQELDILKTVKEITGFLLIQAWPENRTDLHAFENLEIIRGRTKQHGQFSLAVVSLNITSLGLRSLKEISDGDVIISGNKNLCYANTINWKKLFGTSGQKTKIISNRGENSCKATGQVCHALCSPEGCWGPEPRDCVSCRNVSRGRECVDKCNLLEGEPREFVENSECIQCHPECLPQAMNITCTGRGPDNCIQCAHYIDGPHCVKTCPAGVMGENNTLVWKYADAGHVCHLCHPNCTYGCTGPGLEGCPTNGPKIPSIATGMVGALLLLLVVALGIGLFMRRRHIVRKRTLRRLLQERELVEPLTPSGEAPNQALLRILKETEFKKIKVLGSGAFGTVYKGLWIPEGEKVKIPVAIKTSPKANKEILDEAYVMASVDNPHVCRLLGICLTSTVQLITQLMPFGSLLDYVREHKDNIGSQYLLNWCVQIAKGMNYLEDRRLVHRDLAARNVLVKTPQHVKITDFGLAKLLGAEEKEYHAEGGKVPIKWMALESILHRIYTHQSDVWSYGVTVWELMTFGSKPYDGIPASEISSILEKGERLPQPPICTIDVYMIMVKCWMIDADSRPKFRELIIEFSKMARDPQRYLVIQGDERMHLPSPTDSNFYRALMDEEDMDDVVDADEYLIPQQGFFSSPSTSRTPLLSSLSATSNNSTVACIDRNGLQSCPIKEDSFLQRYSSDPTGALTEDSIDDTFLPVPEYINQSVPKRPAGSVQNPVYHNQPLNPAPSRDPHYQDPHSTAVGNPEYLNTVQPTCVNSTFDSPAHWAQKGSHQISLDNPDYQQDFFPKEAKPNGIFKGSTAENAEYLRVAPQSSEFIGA
Sequence of EGFR wildtype (WT) (P00533 25-1210): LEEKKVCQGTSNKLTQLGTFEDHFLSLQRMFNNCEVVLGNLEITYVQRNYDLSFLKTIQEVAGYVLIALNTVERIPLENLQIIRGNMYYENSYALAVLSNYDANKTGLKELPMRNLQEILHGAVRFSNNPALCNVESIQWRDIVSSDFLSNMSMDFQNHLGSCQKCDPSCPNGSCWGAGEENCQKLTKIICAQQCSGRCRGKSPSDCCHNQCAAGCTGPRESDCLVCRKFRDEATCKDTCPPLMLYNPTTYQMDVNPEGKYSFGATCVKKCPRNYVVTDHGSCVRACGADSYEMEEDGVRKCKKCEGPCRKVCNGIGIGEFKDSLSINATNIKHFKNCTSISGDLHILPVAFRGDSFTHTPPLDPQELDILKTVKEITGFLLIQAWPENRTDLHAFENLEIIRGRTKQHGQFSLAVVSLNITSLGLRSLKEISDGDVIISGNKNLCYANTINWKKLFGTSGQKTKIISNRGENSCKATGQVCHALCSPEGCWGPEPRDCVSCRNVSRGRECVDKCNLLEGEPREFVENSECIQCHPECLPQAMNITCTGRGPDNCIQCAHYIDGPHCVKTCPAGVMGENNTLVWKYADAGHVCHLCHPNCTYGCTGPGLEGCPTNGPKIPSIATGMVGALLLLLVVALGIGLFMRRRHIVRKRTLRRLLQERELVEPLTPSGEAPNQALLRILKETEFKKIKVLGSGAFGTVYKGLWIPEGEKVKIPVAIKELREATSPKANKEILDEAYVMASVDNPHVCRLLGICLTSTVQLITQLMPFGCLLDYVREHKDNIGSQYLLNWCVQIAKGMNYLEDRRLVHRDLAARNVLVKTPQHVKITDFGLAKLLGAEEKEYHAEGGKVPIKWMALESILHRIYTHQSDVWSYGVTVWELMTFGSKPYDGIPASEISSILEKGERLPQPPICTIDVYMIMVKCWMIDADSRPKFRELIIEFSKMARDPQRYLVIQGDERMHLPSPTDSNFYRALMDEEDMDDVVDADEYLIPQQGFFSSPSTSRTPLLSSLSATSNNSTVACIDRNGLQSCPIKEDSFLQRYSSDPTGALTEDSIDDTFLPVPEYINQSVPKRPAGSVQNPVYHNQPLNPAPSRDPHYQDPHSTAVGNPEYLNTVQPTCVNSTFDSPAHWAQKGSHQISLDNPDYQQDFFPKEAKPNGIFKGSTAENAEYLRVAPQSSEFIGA

Row | SMILES | IC50 (EGFR del19/T790M/C797S; [1]) [nM] | IC50 (EGFR del19/T790M/C797S; [2]) [nM] | IC50 (EGFR wildtype (WT); [3]) [nM] | IC50 (EGFR wildtype (WT); [4]) [nM] | IC50 (EGFR del19/C797S; [5]) [nM] | IC50 (EGFR del19/C797S; [6]) [nM] | IC50 (EGFR L858R/C797S; [7]) [nM] | IC50 (EGFR L858R/C797S; [8]) [nM] | IC50 (EGFR L858R/T790M/C797S; [9]) [nM] | IC50 (EGFR L858R/T790M/C797S; [10]) [nM] | IC50 (EGFR del19/T790M/C797S; Km ATP, read-out: IC50 del19/T790M/C797S, Km ATP) [nM] | IC50 (EGFR wildtype (WT); Km ATP, read-out: IC50 WT, Km ATP) [nM] | IC50 (EGFR del19/C797S; Km ATP, read-out: IC50 del19/C797S, Km ATP) [nM] | IC50 (EGFR L858R/C797S; Km ATP, read-out: IC50 L858R/C797S, Km ATP) [nM] | IC50 (EGFR L858R/T790M/C797S; Km ATP, read-out: IC50 L858R/T790M/C797S, Km ATP) [nM]
1 | CN(C)C[C@H]1CC[C@@H](Nc2cc(Nc3ccnc(-c4cnn(S(=O)(=O)C5CC5)c4)n3)ncc2-c2ccn(C(F)F)n2)CC1 [Example 195, N^2-(2-(1-(Cyclopropylsulfonyl)-1H-pyrazol-4-yl)pyrimidin-4-yl)-5-(1-(difluoromethyl)-1H-pyrazol-3-yl)-N^4-((1s,4s)-4-((dimethylamino)methyl)cyclohexyl)pyridine-2,4-diamine] | 0.1 | 0.1 | 145 | 0.3 | 0.3 | 0.2 | 0.8 | 0.1 | 0.1 | 0.04 | – | – | – | – | –
2 | Cn1nc(-c2cnc(Nc3ccnc(-c4cnn(S(=O)(=O)C5CC5)c4)n3)cc2N[C@H]2CC[C@@H](CCO)CC2)cc1C(F)(F)F [Example 262, 2-((1s,4s)-4-((2-((2-(1-(Cyclopropylsulfonyl)-1H-pyrazol-4-yl)pyrimidin-4-yl)amino)-5-(1-methyl-5-(trifluoromethyl)-1H-pyrazol-3-yl)pyridin-4-yl)amino)cyclohexyl)ethan-1-ol] | 6.6 | 0.1 | 1880 | 8.4 | 33.4 | 4.5 | 5.3 | 5.7 | 7.3 | 2.1 | – | – | – | – | –
3 | O=S(=O)(C1CC1)n1cc(-c2nccc(Nc3cc(N[C@H]4CC[C@@H](O)CC4)c(-c4ccco4)cn3)n2)cn1 [Example 83, (1s,4s)-4-((2-((2-(1-(Cyclopropylsulfonyl)-1H-pyrazol-4-yl)pyrimidin-4-yl)amino)-5-(furan-2-yl)pyridin-4-yl)amino)cyclohexan-1-ol] | 0.6 | 0.3 | > 10000 | 8.6 | 1.9 | 0.8 | 18 | 0.7 | 0.7 | 0.3 | – | – | – | – | –
4 | C[C@]1(O)CC[C@@H](Nc2cc(Nc3ccnc(-c4cnc5c(c4)CCCO5)n3)ncc2-c2ccn(C(F)F)n2)CC1 [Example 176, (1s,4s)-4-((5-(1-(Difluoromethyl)-1H-pyrazol-3-yl)-2-((2-(3,4-dihydro-2H-pyrano[2,3-b]pyridin-6-yl)pyrimidin-4-yl)amino)pyridin-4-yl)amino)-1-methylcyclohexan-1-ol] | – | 0.3 | – | 752 | – | 264 | – | 10.4 | – | 0.04 | – | – | – | – | –
5 | C[C@]1(O)CC[C@@H](Nc2cc(Nc3ccnc(-c4cnn(S(=O)(=O)C5CC5)c4)n3)ncc2-c2csc(N3CCOCC3)n2)CC1 [Example 120, (1s,4s)-4-((2-((2-(1-(Cyclopropylsulfonyl)-1H-pyrazol-4-yl)pyrimidin-4-yl)amino)-5-(2-morpholinothiazol-4-yl)pyridin-4-yl)amino)-1-methylcyclohexan-1-ol] | 0.9 | 0.6 | > 10000 | 29.7 | 2.3 | 1.4 | 41.7 | 3 | 0.9 | 0.3 | – | – | – | – | –
6 | CS(=O)(=O)N1CCC(c2nccc(Nc3cc(N[C@H]4CC[C@@](C)(O)CC4)c(-c4ccn(C(F)F)n4)cn3)n2)CC1 [Example 158, (1s,4s)-4-((5-(1-(Difluoromethyl)-1H-pyrazol-3-yl)-2-((2-(1-(methylsulfonyl)piperidin-4-yl)pyrimidin-4-yl)amino)pyridin-4-yl)amino)-1-methylcyclohexan-1-ol] | – | 110 | – | 635 | – | 6330 | – | 450 | – | 9.4 | – | – | – | – | –
7 | O=S(=O)(C1CC1)n1cc(-c2nccc(Nc3cc(NC4CCC5(CC4)CNC5)c(-c4ccn(C(F)F)n4)cn3)n2)cn1 [Example 27, N^2-(2-(1-(Cyclopropylsulfonyl)-1H-pyrazol-4-yl)pyrimidin-4-yl)-5-(1-(difluoromethyl)-1H-pyrazol-3-yl)-N^4-(2-azaspiro[3.5]nonan-7-yl)pyridine-2,4-diamine] | 0.6 | 0.7 | 162 | 0.7 | 0.3 | 0.2 | 2.2 | 0.5 | 0.4 | 0.2 | – | – | – | – | –
8 | C[C@]1(O)CC[C@@H](Nc2cc(Nc3ccnc(-c4cnn(CC(F)(F)F)c4)n3)ncc2-c2ccn(C(F)F)n2)CC1 [Example 137, (1s,4s)-4-((5-(1-(Difluoromethyl)-1H-pyrazol-3-yl)-2-((2-(1-(2,2,2-trifluoroethyl)-1H-pyrazol-4-yl)pyrimidin-4-yl)amino)pyridin-4-yl)amino)-1-methylcyclohexan-1-ol] | 1.2 | 0.5 | > 10000 | 1780 | 65.7 | 24.3 | 269 | 35.9 | 0.9 | 0.2 | – | – | – | – | –
9 | O=S(=O)(C1CC1)n1cc(-c2nccc(Nc3cc(N[C@H]4CC[C@H](CO)OC4)c(-c4ccn(C(F)F)n4)cn3)n2)cn1 [Example 196, ((2R,5S)-5-((2-((2-(1-(Cyclopropylsulfonyl)-1H-pyrazol-4-yl)pyrimidin-4-yl)amino)-5-(1-(difluoromethyl)-1H-pyrazol-3-yl)pyridin-4-yl)amino)tetrahydro-2H-pyran-2-yl)methanol] | 3.7 | – | > 10000 | – | 131 | – | 9100 | – | 13.3 | – | – | – | – | – | –
10 | CC(O)C(C)(C)Nc1cc(Nc2ccnc(-c3cnn(S(=O)(=O)C4CC4)c3)n2)ncc1-c1ccn(C)n1 (centres unmarked) [Example 95, 3-((2-((2-(1-(Cyclopropylsulfonyl)-1H-pyrazol-4-yl)pyrimidin-4-yl)amino)-5-(1-methyl-1H-pyrazol-3-yl)pyridin-4-yl)amino)-3-methylbutan-2-ol] | 1.3 | – | > 10000 | – | 57.7 | – | 45.2 | – | 1.9 | – | – | – | – | – | –
11 | CC1(O)CCC(Nc2cc(Nc3ccnc(N4CCC(F)(F)C(O)C4)n3)ncc2-c2ccn(C(F)F)n2)CC1 (centres unmarked) [Example 350, 1-(4-((5-(1-(Difluoromethyl)-1H-pyrazol-3-yl)-4-(((1s,4s)-4-hydroxy-4-methylcyclohexyl)amino)pyridin-2-yl)amino)pyrimidin-2-yl)-4,4-difluoropiperidin-3-ol] | – | – | – | – | – | – | – | – | – | – | 4.2 | 261 | 95.1 | 117 | 2.6
12 | O=S(=O)(C1CC1)n1cc(-c2nccc(Nc3cc(NC[C@H]4CC[C@@H](O)C4)c(-c4ccn(CC(F)(F)F)n4)cn3)n2)cn1 [Example 268, (1R,3S)-3-(((2-((2-(1-(Cyclopropylsulfonyl)-1H-pyrazol-4-yl)pyrimidin-4-yl)amino)-5-(1-(2,2,2-trifluoroethyl)-1H-pyrazol-3-yl)pyridin-4-yl)amino)methyl)cyclopentan-1-ol] | 0.6 | 2.5 | > 10000 | 74.4 | 200 | 7.6 | 10.7 | 3.2 | 0.6 | 0.3 | – | – | – | – | –
